Measurements as given in patent publication US20040077580A1, “Antisense modulation of PI3K P85 Expression” (priority 2000, published 2004).
Strand notation (5' to 3'): a small letter for the sugar, then the base; units joined by * are phosphorothioate-linked, units joined directly phosphodiester-linked; [ ] holds rarer units or linkages, { } end groups; capitals alone tell only the bases. e = 2'-O-(2-methoxyethyl) (MOE); [5mC] = 5-methylcytosine; d = 2'-deoxy (DNA)

System: mouse PI3K p85
Assay: Inhibition of mouse PI3K p85 mRNA levels by antisense oligonucleotides, real-time quantitative RT-PCR
Assay type: cell-based
Parameters: concentration or dose not given beside the values
Conditions: chimeric phosphorothioate 2′-MOE gapmers, averaged from two experiments
Protocol: Cells were harvested 16 hours after oligonucleotide treatment.
Target sites are indicated by nucleotide numbers, as given in the sequence source reference (Genbank accession no. U50413; SEQ ID NO: 48), to which the oligonucleotide binds.
Cytidine residues are 5-methylcytidines throughout the oligonucleotides.
Data were obtained by real-time quantitative RT-PCR as described in other examples herein and are averaged from two experiments. […] If present, “N.D.” indicates “no data”.

| Substance | % Inhib. of mouse PI3K p85 mRNA levels |
| --- | --- |
| ccagtggtttcattgtagcc (e[5mC]*e[5mC]*eA*eG*eT*dG*dG*dT*dT*dT*d[5mC]*dA*dT*dT*dG*eT*eA*eG*e[5mC]*e[5mC]; antisense) [ISIS 131411] | at least 60% |
| 131421 (antisense eG*e[5mC]*eT*e[5mC]*e[5mC]*d[5mC]*dG*dA*d[5mC]*dA*dT*dT*d[5mC]*d[5mC]*dA*e[5mC]*eG*eT*e[5mC]*eT) [compound 131421] | 65% |
| cttgctgctccgtgtcagct (e[5mC]*eT*eT*eG*e[5mC]*dT*dG*d[5mC]*dT*d[5mC]*d[5mC]*dG*dT*dG*dT*e[5mC]*eA*eG*e[5mC]*eT; antisense) [ISIS 131412] | at least 60% |
| gcactcatgtctgcagctct (eG*e[5mC]*eA*e[5mC]*eT*d[5mC]*dA*dT*dG*dT*d[5mC]*dT*dG*d[5mC]*dA*eG*e[5mC]*eT*e[5mC]*eT; antisense) [ISIS 131409] | at least 60% |
| 131416 (antisense eT*eG*e[5mC]*eT*eG*dG*dT*dG*d[5mC]*dT*dG*dG*d[5mC]*dT*dG*eT*e[5mC]*eT*e[5mC]*eT) [compound 131416] | 68% |
| 131415 (antisense eA*eT*eA*e[5mC]*eT*dG*dA*dA*dG*d[5mC]*dG*dT*dA*dA*dG*e[5mC]*e[5mC]*eA*eA*e[5mC]) [compound 131415] | 75% |
| tcggcgagatagcgtttgaa (eT*e[5mC]*eG*eG*e[5mC]*dG*dA*dG*dA*dT*dA*dG*d[5mC]*dG*dT*eT*eT*eG*eA*eA; antisense) [ISIS 131414] | at least 60% |
| tgctggtgctggctgtctct (eT*eG*e[5mC]*eT*eG*dG*dT*dG*d[5mC]*dT*dG*dG*d[5mC]*dT*dG*eT*e[5mC]*eT*e[5mC]*eT; antisense) [ISIS 131416] | at least 60% |
| 131410 (antisense e[5mC]*e[5mC]*eT*eG*eG*d[5mC]*d[5mC]*dA*dT*d[5mC]*dA*d[5mC]*dT*dG*dA*eA*eT*e[5mC]*e[5mC]*eA) [compound 131410] | 95% |
| 131426 (antisense eG*e[5mC]*eA*eT*e[5mC]*dA*dA*dT*dG*dT*dT*d[5mC]*dT*d[5mC]*dT*e[5mC]*eA*eA*eA*eG) [compound 131426] | 75% |
| 131418 (antisense e[5mC]*e[5mC]*eT*eG*e[5mC]*dT*dG*dG*dT*dA*dT*dT*dT*dG*dG*eA*e[5mC]*eA*e[5mC]*eT) [compound 131418] | 50% |
| 131409 (antisense eG*e[5mC]*eA*e[5mC]*eT*d[5mC]*dA*dT*dG*dT*d[5mC]*dT*dG*d[5mC]*dA*eG*e[5mC]*eT*e[5mC]*eT) [compound 131409] | 85% |
| cgctccactctcagcttcac (e[5mC]*eG*e[5mC]*eT*e[5mC]*d[5mC]*dA*d[5mC]*dT*d[5mC]*dT*d[5mC]*dA*dG*d[5mC]*eT*eT*e[5mC]*eA*e[5mC]; antisense) [ISIS 131407] | at least 60% |
| 131406 (antisense e[5mC]*eG*e[5mC]*eT*eG*d[5mC]*dT*dT*d[5mC]*d[5mC]*dT*d[5mC]*d[5mC]*dA*dA*e[5mC]*eT*e[5mC]*eG*eG) [compound 131406] | 56% |
| 131408 (antisense e[5mC]*e[5mC]*eA*eT*e[5mC]*dT*dG*dT*d[5mC]*d[5mC]*dT*d[5mC]*d[5mC]*dA*dT*e[5mC]*eA*eA*e[5mC]*eG) [compound 131408] | 88% |
| 131419 (antisense eG*e[5mC]*eT*e[5mC]*e[5mC]*dT*dG*dG*dG*dT*dT*dT*dG*dG*d[5mC]*eA*eT*eT*eG*eT) [compound 131419] | 45% |
| ccatctgtcctccatcaacg (e[5mC]*e[5mC]*eA*eT*e[5mC]*dT*dG*dT*d[5mC]*d[5mC]*dT*d[5mC]*d[5mC]*dA*dT*e[5mC]*eA*eA*e[5mC]*eG; antisense) [ISIS 131408] | at least 60% |
| 131423 (antisense eT*eT*eT*eG*e[5mC]*dT*dT*d[5mC]*dT*d[5mC]*dA*dG*dA*dG*dG*e[5mC]*e[5mC]*eT*eT*eG) [compound 131423] | 40% |
| 131413 (antisense eT*e[5mC]*eT*e[5mC]*e[5mC]*dA*dA*dG*dT*d[5mC]*d[5mC]*dA*d[5mC]*dT*dG*eA*e[5mC]*eG*e[5mC]*eG) [compound 131413] | 56% |
| 131422 (antisense e[5mC]*e[5mC]*eA*eT*eA*dG*d[5mC]*d[5mC]*dG*dG*dT*dG*dG*d[5mC]*dA*eG*eT*e[5mC]*eT*eT) [compound 131422] | 40% |
| 131414 (antisense eT*e[5mC]*eG*eG*e[5mC]*dG*dA*dG*dA*dT*dA*dG*d[5mC]*dG*dT*eT*eT*eG*eA*eA) [compound 131414] | 73% |
| 131420 (antisense e[5mC]*eG*eA*eT*e[5mC]*dT*d[5mC]*dT*d[5mC]*dG*dG*dT*dA*d[5mC]*dT*e[5mC]*eA*eG*e[5mC]*eT) [compound 131420] | 79% |
| 131412 (antisense e[5mC]*eT*eT*eG*e[5mC]*dT*dG*d[5mC]*dT*d[5mC]*d[5mC]*dG*dT*dG*dT*e[5mC]*eA*eG*e[5mC]*eT) [compound 131412] | 85% |
| ggtgtaagagtgtaatcgcc (eG*eG*eT*eG*eT*dA*dA*dG*dA*dG*dT*dG*dT*dA*dA*eT*e[5mC]*eG*e[5mC]*e[5mC]; antisense) [ISIS 131417] | at least 60% |
| 131407 (antisense e[5mC]*eG*e[5mC]*eT*e[5mC]*d[5mC]*dA*d[5mC]*dT*d[5mC]*dT*d[5mC]*dA*dG*d[5mC]*eT*eT*e[5mC]*eA*e[5mC]) [compound 131407] | 85% |
| gctcccgacattccacgtct (eG*e[5mC]*eT*e[5mC]*e[5mC]*d[5mC]*dG*dA*d[5mC]*dA*dT*dT*d[5mC]*d[5mC]*dA*e[5mC]*eG*eT*e[5mC]*eT; antisense) [ISIS 131421] | at least 60% |
| 131411 (antisense e[5mC]*e[5mC]*eA*eG*eT*dG*dG*dT*dT*dT*d[5mC]*dA*dT*dT*dG*eT*eA*eG*e[5mC]*e[5mC]) [compound 131411] | 90% |
